According to patent EP0250134B1, “Method for combating swine dysentery” (IMCERA Group Inc., priority 1986, dated 1987):
In brackets after ≈: the same amount, converted by molar mass. Where a name gives a salt, the structure may show the parent alone. Read-outs that look alike come from different tables or passages of the source.

System: Treponema hyodysenteriae
Experiment: in vitro Streak Plate Test Method (inhibition endpoint / MIC on trypticase soy blood agar)
Type: cell-based
Conditions: for Inhibition Endpoints / MIC: first number = growth occurred, second = no growth, 48 hrs at 39°C anaerobic; for MIC: Brachyspira hyodysenteriae, 48 h
Procedure: The following test procedure was used to evaluate the anti-Treponema hyodysenteriae activity of the compounds in the present invention. This test procedure establishes the lowest concentration of the compounds that will inhibit the growth on cultures of Treponema hyodysenteriae in an in vitro Streak Plate Test Method.
Procedure: Stock solutions containing 10,000, 1,000, 100, 10, 1.0, and 0.1, micrograms per milliliters of the compound to be tested were prepared. The final dilutions to establish the test concentrations in the media were made by placing the correct volume of stock solution in a petri dish, adding the media (trypticase soy blood agar), and mixing before the media solidified. After the media solidified, the test cultures of Treponema hyodysenteriae were streaked onto the surface of the agar. Petri dishes containing media without test samples were also set up as culture controls and are inoculated in the same manner. All inoculated plates were incubated at 39°C in anaerobic jars for 48 hrs. Inhibition endpoints were then determined by observing the test plates for growth or no growth of the test cultures at the various concentrations of the compounds. If the culture growth occured at one concentration but not at the next higher concentration, the inhibitory endpoint or MIC (Minimum Inhibitory Concentration) was considered the higher concentration.
Referring to Table 1, the culture numbers refer to field isolate strains of Treponema hyodysenteriae. These field isolates were isolated in Illinois, Iowa, and Nebraska. The numbers giving the results in the Table are read as follows: the first number for each isolate and compound tested corresponds to the concentration in micrograms per milliliter where growth occurred and the second number corresponds to the concentration in micrograms per milliliter where no growth occurred.

[1] = Culture No. 8064 (field isolate)
[2] = Culture No. 8072 (field isolate)
[3] = Culture No. 8076 (field isolate)
[4] = Culture No. 8080 (field isolate)
[5] = Culture No. 8087 (field isolate)
[6] = Culture No. 8098 (field isolate)
[7] = Culture No. 8125 (field isolate)
[8] = Culture No. B-100 (field isolate)
[9] = Culture No. B-140 (field isolate)

Mn Lysocellin was tested, and the “Inhibition Endpoints” value [1] was “.1-.5 µgs/ml”, the “Inhibition Endpoints” value [2] was “.1-.5 µgs/ml” and the “Inhibition Endpoints” value [3] was “.1-.5 µgs/ml”. The “Inhibition Endpoints” value [4] was “.1-.5 µgs/ml”, the “Inhibition Endpoints” value [5] was “.1-.5 µgs/ml” and the “Inhibition Endpoints” value [6] was “.1-.5 µgs/ml”. The “Inhibition Endpoints” value [7] was “.1-.5 µgs/ml”, the “Inhibition Endpoints” value [8] was “.1-.5 µgs/ml” and the “Inhibition Endpoints” value [9] was “.1-.5 µgs/ml”.

For Lysocellin Na, the “Inhibition Endpoints” value [1] was “.1-.5 µgs/ml”, the “Inhibition Endpoints” value [2] was “.1-.5 µgs/ml” and the “Inhibition Endpoints” value [3] was “.1-.5 µgs/ml”. For the same molecule, the “Inhibition Endpoints” value [4] was “.1-.5 µgs/ml”, the “Inhibition Endpoints” value [5] was “.1-.5 µgs/ml” and the “Inhibition Endpoints” value [6] was “.1-.5 µgs/ml”. The “Inhibition Endpoints” value [7] was “.1-.5 µgs/ml”, the “Inhibition Endpoints” value [8] was “.1-.5 µgs/ml” and the “Inhibition Endpoints” value [9] was “.1-.5 µgs/ml”.

In the case of CCC[C@@H]1C[C@@H](C(=O)N[C@@H]([C@H]2O[C@H](SC)[C@H](O)[C@@H](O)[C@H]2O)[C@@H](C)O)N(C)C1 [Lincomycin HCL, reference compound], the MIC (read-out: Inhibition Endpoints, Culture No. 8064 (field isolate)) is reported as 10 to 50 µg/mL, the MIC (read-out: Inhibition Endpoints, Culture No. 8072 (field isolate)) is reported as 10 to 50 µg/mL and the MIC (read-out: Inhibition Endpoints, Culture No. 8076 (field isolate)) is reported as 10 to 50 µg/mL. For the same molecule, the MIC (read-out: Inhibition Endpoints, Culture No. 8080 (field isolate)) was 10 to 50 µg/mL, the MIC (read-out: Inhibition Endpoints, Culture No. 8087 (field isolate)) was 10 to 50 µg/mL and the MIC (read-out: Inhibition Endpoints, Culture No. 8098 (field isolate)) was 10 to 50 µg/mL. The MIC (read-out: Inhibition Endpoints, Culture No. 8125 (field isolate)) was 10 to 50 µg/mL, the MIC (read-out: Inhibition Endpoints, Culture No. B-100 (field isolate)) was 1 to 5 µg/mL and the MIC (read-out: Inhibition Endpoints, Culture No. B-140 (field isolate)) was 0.05 to 0.1 µg/mL.

With Carriomycin Na [reference compound] the “Inhibition Endpoints” value [1] was “.01-.05 µgs/ml”, the “Inhibition Endpoints” value [2] was “<.01 µgs/ml” and the “Inhibition Endpoints” value [3] was “<.01 µgs/ml”. For the same molecule, the “Inhibition Endpoints” value [4] was “.01-.05 µgs/ml”, the “Inhibition Endpoints” value [5] was “.01-.05 µgs/ml” and the “Inhibition Endpoints” value [6] was “<.01 µgs/ml”. For the same molecule, the “Inhibition Endpoints” value [7] was “<.01 µgs/ml” and the “activity compared to the controls” value (summary of Table 1) was “comparable activity”.

Lysocellin Free Acid was tested, and the “Inhibition Endpoints” value [1] was “.1-.5 µgs/ml”, the “Inhibition Endpoints” value [2] was “.01-.05 µgs/ml” and the “Inhibition Endpoints” value [3] was “<.01 µgs/ml”. For the same molecule, the “Inhibition Endpoints” value [4] was “.1-.5 µgs/ml”, the “Inhibition Endpoints” value [5] was “.05-.1 µgs/ml” and the “Inhibition Endpoints” value [6] was “.05-.1 µgs/ml”. For the same molecule, the “Inhibition Endpoints” value [7] was “.01-.05 µgs/ml”, the “Inhibition Endpoints” value [8] was “.01-.05 µgs/ml” and the “Inhibition Endpoints” value [9] was “.01-.1 µgs/ml”.

For Ni Lysocellin, the “Inhibition Endpoints” value [1] was “.05-.1 µgs/ml”, the “Inhibition Endpoints” value [2] was “<.01 µgs/ml” and the “Inhibition Endpoints” value [3] was “.05-.1 µgs/ml”. For the same molecule, the “Inhibition Endpoints” value [4] was “.1-.5 µgs/ml”, the “Inhibition Endpoints” value [5] was “.05-.1 µgs/ml” and the “Inhibition Endpoints” value [6] was “.05-.1 µgs/ml”. For the same molecule, the “Inhibition Endpoints” value [7] was “<.01 µgs/ml”, the “Inhibition Endpoints” value [8] was “<.01 µgs/ml” and the “Inhibition Endpoints” value [9] was “<.01 µgs/ml”.

For Zn Lysocellin, the “Inhibition Endpoints” value [1] was “.1-.5 µgs/ml”, the “Inhibition Endpoints” value [2] was “.1-.5 µgs/ml” and the “Inhibition Endpoints” value [3] was “.1-.5 µgs/ml”. For the same molecule, the “Inhibition Endpoints” value [4] was “.1-.5 µgs/ml”, the “Inhibition Endpoints” value [5] was “.05-.1 µgs/ml” and the “Inhibition Endpoints” value [6] was “.1-.5 µgs/ml”. The “Inhibition Endpoints” value [7] was “.05-.1 µgs/ml”, the “Inhibition Endpoints” value [8] was “.05-.1 µgs/ml” and the “Inhibition Endpoints” value [9] was “.05-.1 µgs/ml”.

Co Lysocellin was tested, and the “Inhibition Endpoints” value [1] was “.05-.1 µgs/ml”, the “Inhibition Endpoints” value [2] was “<.01 µgs/ml” and the “Inhibition Endpoints” value [3] was “.05-.1 µgs/ml”. The “Inhibition Endpoints” value [4] was “.05-.1 µgs/ml”, the “Inhibition Endpoints” value [5] was “.05-.1 µgs/ml” and the “Inhibition Endpoints” value [6] was “.05-.1 µgs/ml”. The “Inhibition Endpoints” value [7] was “<.01 µgs/ml”, the “Inhibition Endpoints” value [8] was “<.01 µgs/ml” and the “Inhibition Endpoints” value [9] was “<.01 µgs/ml”.

CCC(C(=O)C(C)C(O)C(C)CCc1ccc(C)c(O)c1C(=O)O)C1OC(CC)(C2CCC(O)(CC)C(C)O2)CC1C (centres unmarked) [Lasalocid Na, reference compound] was tested, and the MIC (Culture No. 8064 (field isolate), read-out: Inhibition Endpoints) was 1 to 5 µg/mL (≈ 1.69 to 8.46 µM), the MIC (Culture No. 8072 (field isolate), read-out: Inhibition Endpoints) was 1 to 5 µg/mL (≈ 1.69 to 8.46 µM) and the MIC (Culture No. 8076 (field isolate), read-out: Inhibition Endpoints) was 1 to 5 µg/mL (≈ 1.69 to 8.46 µM). For the same molecule, the MIC (Culture No. 8080 (field isolate), read-out: Inhibition Endpoints) was 0.5 to 1 µg/mL (≈ 0.846 to 1.69 µM), the MIC (Culture No. 8087 (field isolate), read-out: Inhibition Endpoints) was 1 to 5 µg/mL (≈ 1.69 to 8.46 µM) and the MIC (Culture No. 8098 (field isolate), read-out: Inhibition Endpoints) was 1 to 5 µg/mL (≈ 1.69 to 8.46 µM). The MIC (Culture No. 8125 (field isolate), read-out: Inhibition Endpoints) was 1 to 5 µg/mL (≈ 1.69 to 8.46 µM), the MIC (Culture No. B-100 (field isolate), read-out: Inhibition Endpoints) was 0.5 to 1 µg/mL (≈ 0.846 to 1.69 µM) and the MIC (Culture No. B-140 (field isolate), read-out: Inhibition Endpoints) was 1 to 5 µg/mL (≈ 1.69 to 8.46 µM).

With Na Zn Lysocellin the “Inhibition Endpoints” value [1] was 1.0-5.0 µgs/ml, the “Inhibition Endpoints” value [2] was 1.0-5.0 µgs/ml and the “Inhibition Endpoints” value [3] was 1.0-5.0 µgs/ml. For the same molecule, the “Inhibition Endpoints” value [4] was “.5-1.0 µgs/ml”, the “Inhibition Endpoints” value [5] was 1.0-5.0 µgs/ml and the “Inhibition Endpoints” value [6] was “.1-.5 µgs/ml”. The “Inhibition Endpoints” value [7] was 1.0-5.0 µgs/ml, the “Inhibition Endpoints” value [8] was 1.0-5.0 µgs/ml and the “Inhibition Endpoints” value [9] was 1.0-5.0 µgs/ml.

Cu Lysocellin was tested, and the “Inhibition Endpoints” value [1] was “.1-.5 µgs/ml”, the “Inhibition Endpoints” value [2] was “.05-.1 µgs/ml” and the “Inhibition Endpoints” value [3] was “.05-.1 µgs/ml”. The “Inhibition Endpoints” value [4] was “.1-.5 µgs/ml”, the “Inhibition Endpoints” value [5] was “.1-.5 µgs/ml” and the “Inhibition Endpoints” value [6] was “.05-.1 µgs/ml”. The “Inhibition Endpoints” value [7] was “.1-.5 µgs/ml”, the “Inhibition Endpoints” value [8] was “.1-.5 µgs/ml” and the “Inhibition Endpoints” value [9] was “.1-.5 µgs/ml”.
